# Patent US5223169A, “Hydrolase surfactant systems and their use in laundering” (priority 1991, dated 1993)
# Columns and labels:
# Test in all cases: pH-stat assay of triglyceride emulsion hydrolysis; critical oil-to-surfactant ratio
# [1] = test system: enzyme from P. putida ATCC 53552 (lipase GC-1065); type: biochemical, Pseudomonas putida; details: for Critical Ratio / Enzyme Activity: Surfonic JL80X 0.5 mM
# Excerpt: (§1) To determine the critical ratio for any specific enzyme-surfactant combination, aliquots of an aqueous solution, each containing a determined (constant) amount of the enzyme which is effective in the absence of any surfactant to hydrolyze the triglycerides in an oily stain on a determined (constant) amount of a fabric soiled by a determined (constant) amount of a triglyceride oil, are mixed with a determined (constant) amount of a surfactant which is within the range of the amounts conventionally present in home laundry solutions, e.g., from about 0.2 to 1.5. mM, and which is effective to inhibit the hydrolyzing activity of the enzyme. To the aliquots are added a hydrolysis activator, e.g., trioctanoin, in increasing amounts and the hydrolyzing activity of the enzyme in the various solutions is determined.
# (§2) The experiments determining enzyme activity, such as those set out in Tables IA and IB, were carried out as follows:
# (§3) The desired amount of triglyceride was weighed into an appropriate size beaker, on a Mettler balance (model number AE163). The corresponding amount of surfactant was added to the triglyceride, from a previously prepared aqueous surfactant stock solution, and the triglyceride and surfactant mixed manually. The sample was then adjusted to the desired weight using doubly distilled H2 O. Emulsification of the sample was carried out, prior to assaying enzyme activity, with a probe sonicator (Braun-Sonic model 2000), on ice, for approx. 2 minutes.
# (§4) (ii) Enzyme Activity Measurement:
# (§5) This was achieved by monitoring the rate of acid liberation, from the enzymatic hydrolysis of the triglycerides in the emulsion. The assay was initiated by adding approx. 2 ppm lipase to 10 ml of the prepared emulsion. The acid liberated was monitored by autotitration, on a Radiometer pH-stat (model number ABU80) to an endpoint of a pH of 10. Initial rates were recorded for the first 5 minutes of the reaction, and the reaction rates reported as μmole H^+ titrated . min ^-1 mgE^-1. Occasionally enzyme activity is reported as % total oil hydrolyzed in 14 min. In these examples, the reaction was allowed to run for 14 min. and the amount of acid titrated recorded. The % total oil (triglyceride) hydrolyzed was then calculated by dividing the recorded value with the theoretically calculated value assuming three equivalents of oleic acid was produced for each triglyceride equivalent. All assays were run at ambient temperatures.
# Enzyme Amano P = target: T1, Enzyme Amano P (Burkholderia cepacia, UniProt P22088); type: biochemical, P. fluorescens
# T1 construct: purchased Amano Co
# T1 sequence (P22088 45-364): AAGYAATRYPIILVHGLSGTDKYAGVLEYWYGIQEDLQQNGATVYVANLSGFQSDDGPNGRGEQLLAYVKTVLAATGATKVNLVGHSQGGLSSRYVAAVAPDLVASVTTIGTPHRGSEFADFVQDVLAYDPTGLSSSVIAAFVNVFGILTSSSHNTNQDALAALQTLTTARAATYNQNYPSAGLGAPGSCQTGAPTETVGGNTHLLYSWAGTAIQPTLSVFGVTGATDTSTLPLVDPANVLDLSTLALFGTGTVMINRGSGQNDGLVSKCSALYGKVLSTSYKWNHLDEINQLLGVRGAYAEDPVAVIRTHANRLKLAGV
# Excerpt: as §1, §2, §3, §4, §5
# Enzyme Amano 68S = type: biochemical, P. sp.; details: for Critical Ratio / Enzyme Activity: surfactant conc.: SDS 1 mM
# Excerpt: as §1, §2, §3, §4, §5
# [2] = Table II, trioctanoin, surfactant conc.: SDS 2 mM, C12 LAS 1 mM, Neodol 25-3S 2 mM, Neodol 25-9 0.5 mM, Triton X100 2 mM
# [3] = Table Summary, second block of lines (corresponds to triolein Tables VI-IX)
# [4] = Table VI, triolein, surfactant conc.: SDS 1 mM, C12 LAS 0.5 mM, Neodol 25-3S 1 mM, Neodol 25-9 0.5 mM
# [5] = triolein emulsions, high conc.: SDS 10 mM, C12 LAS 5 mM, Neodol 25-9 5 mM, Neodol 25-3S 5 mM, Surfonic JL-80X 2.5 mM
# [6] = Table III, trioctanoin, surfactant conc.: SDS 2 mM, C12 LAS 1 mM, Neodol 25-3S 2 mM, Neodol 25-9 0.5 mM, Surfonic JL80X 0.5 mM
# [7] = Table VII, triolein, surfactant conc.: SDS 1 mM, others 0.5 mM
# [8] = Table IV, trioctanoin, C12 LAS 0.2 mM, Neodol 25-3S 0.5 mM, Neodol 25-9 0.5 mM, Surfonic JL80X 0.5 mM
# [9] = Table VIII, triolein, C12 LAS 0.5 mM, Neodol 25-3S 0.5 mM, Neodol 25-9 0.5 mM, Surfonic JL80X 2.5 mM
compound,measurement,setting,value
"CCCCCCCCCCCCOS(=O)(=O)[O-].[Na+] [SDS, sodium dodecylsulfate]",Critical Ratio,[1]; [2],0.5-5.0
same,Enzyme Activity,[1]; [2],325 μmole H^+ released min^-1 mgE^
same,"critical ratio class, enzyme From ATCC 53552",[1]; [3],0 (means a critical ratio of 1.0-10)
same,Critical Ratio,[1]; [4],5-10
same,Enzyme Activity,[1]; [4],60 μmole H^+ released min^-1 mgE^
same,"Specific Activity determined from initial rates, GC-1065, High","[1]; trioctanoin emulsions, high surfactant conc. as E41",450 μeq acid/min.mg
same,"Critical Ratio, GC-1065, High","[1]; trioctanoin emulsions, lipase ~2 ppm, high surfactant conc.: SDS 10 mM, C12 LAS 5 mM, Neodol 25-9 5 mM, Neodol 25-3S 10 mM, Surfonic JL-80X 5 mM, Triton X-100 10 mM, C16 DAPS 10 mM",1-3
same,"Critical Ratio, GC-1065, Low","[1]; trioctanoin emulsions, lipase ~2 ppm, low surfactant conc.: SDS 2 mM, C12 LAS 1 mM, Neodol 25-9 0.5 mM, Neodol 25-3S 2 mM, Surfonic JL-80X 0.5 mM, Triton X-100 2 mM, C16 DAPS 0.5 mM",0.5-5.0
same,"Specific Activity determined from initial rates, GC-1065, Low","[1]; trioctanoin emulsions, low surfactant conc. as E40",325 μeq acid/min.mg
same,"Activity (specific hydrolysis activity from initial rates), GC-1065, High","[1]; triolein emulsions, high conc. as E55",50 μeq acid/min./mg
same,"R, critical (minimum activating molar) ratio, GC-1065, High",[1]; [5],1-5
same,"Activity (specific hydrolysis activity from initial rates), GC-1065, Low","[1]; triolein emulsions, low conc. as E54",60 μeq acid/min./mg
same,"R, critical (minimum activating molar) ratio, GC-1065, Low","[1]; triolein emulsions, low conc.: SDS 1 mM, C12 LAS 0.5 mM, Neodol 25-9 0.5 mM, Neodol 25-3S 1 mM, Surfonic JL-80X 0.5 mM",5-10
same,Critical Ratio,Enzyme Amano P; [6],1-5
same,Enzyme Activity,Enzyme Amano P; [6],100 μmole H^+ released min^-1 mgE^
same,"critical ratio class, Amano P",Enzyme Amano P; [3],0 (means a critical ratio of 1.0-10)
same,Critical Ratio,Enzyme Amano P; [7],5-10
same,Enzyme Activity,Enzyme Amano P; [7],160 μmole H^+ released min^-1 mgE^
same,"Specific Activity determined from initial rates, AMANO P, High","Enzyme Amano P; trioctanoin emulsions, high surfactant conc. as E43",200 μeq acid/min.mg
same,"Critical Ratio, AMANO P, High","Enzyme Amano P; trioctanoin emulsions, lipase ~2 ppm, high conc.: SDS 10 mM, C12 LAS 5 mM, Neodol 25-9 5 mM, Neodol 25-3S 20 mM, Surfonic JL-80X 5 mM",5-10
same,"Critical Ratio, AMANO P, Low","Enzyme Amano P; trioctanoin emulsions, lipase ~2 ppm, low conc.: SDS 2 mM, C12 LAS 1 mM, Neodol 25-9 0.5 mM, Neodol 25-3S 2.0 mM, Surfonic JL-80X 0.5 mM",1-5
same,"Specific Activity determined from initial rates, AMANO P, Low","Enzyme Amano P; trioctanoin emulsions, low surfactant conc. as E42",100 μeq acid/min.mg
same,"Activity (specific hydrolysis activity from initial rates), AMANO P, High","Enzyme Amano P; triolein emulsions, high conc. as E57",150 μeq acid/min./mg
same,"R, critical (minimum activating molar) ratio, AMANO P, High",Enzyme Amano P; [5],5-10
same,"Activity (specific hydrolysis activity from initial rates), AMANO P, Low","Enzyme Amano P; triolein emulsions, low conc. as E56",160 μeq acid/min./mg
same,"R, critical (minimum activating molar) ratio, AMANO P, Low","Enzyme Amano P; triolein emulsions, low conc.: SDS 1 mM, others 0.5 mM",5-10
same,Critical Ratio,Enzyme Amano 68S; [8],0.1-0.5
same,Enzyme Activity,Enzyme Amano 68S; [8],400 μmole H^+ released min^-1 mgE^
same,"critical ratio class, Amano 68S",Enzyme Amano 68S; [3],0 (means a critical ratio of 1.0-10)
same,Critical Ratio,Enzyme Amano 68S; [9],1-5
same,Enzyme Activity,Enzyme Amano 68S; [9],200 μmole H^+ released min^-1 mgE^
same,"Specific Activity determined from initial rates, AMANO 68S, High","Enzyme Amano 68S; trioctanoin emulsions, high surfactant conc. as E45",1200 μeq acid/min.mg
same,"Critical Ratio, AMANO 68S, High","Enzyme Amano 68S; trioctanoin emulsions, lipase ~2 ppm, high conc.: SDS 10 mM, C12 LAS 2 mM, Neodol 25-9 5 mM, Neodol 25-3S 10 mM, Surfonic JL-80X 5 mM",10-15
same,"Critical Ratio, AMANO 68S, Low","Enzyme Amano 68S; trioctanoin emulsions, lipase ~2 ppm, low conc.: SDS 1 mM, C12 LAS 0.2 mM, Neodol 25-9 0.5 mM, Neodol 25-3S 0.5 mM, Surfonic JL-80X 0.5 mM",0.1-0.5
same,"Specific Activity determined from initial rates, AMANO 68S, Low","Enzyme Amano 68S; trioctanoin emulsions, low surfactant conc. as E44",400 μeq acid/min.mg
same,"Activity (specific hydrolysis activity from initial rates), AMANO 68S, High","Enzyme Amano 68S; triolein emulsions, high conc. as E59",175 μeq acid/min./mg
same,"R, critical (minimum activating molar) ratio, AMANO 68S, High","Enzyme Amano 68S; triolein emulsions, high conc.: SDS 10 mM, C12 LAS 5 mM, Neodol 25-9 5 mM, Neodol 25-3S 5 mM, Surfonic JL-80X 2.5 mm",5-10
same,"Activity (specific hydrolysis activity from initial rates), AMANO 68S, Low","Enzyme Amano 68S; triolein emulsions, low conc. as E58",200 μeq acid/min./mg
same,"R, critical (minimum activating molar) ratio, AMANO 68S, Low","Enzyme Amano 68S; triolein emulsions, low conc.: SDS 1 mM, C12 LAS 0.5 mM, Neodol 25-9 0.5 mM, Neodol 25-3S 0.5 mM, Surfonic JL-80X 2.5 mM",1-5
